Experiments:
wild type CFTR = wild type CFTR (Homo sapiens, UniProt P13569); assay: YFP halide assay, HEK293 cells transfected with wild type CFTR; assay type: cell-based; parameters: expressed in transfected cells; host or cells: HEK293
Experimental: HEK293 cells were transfected with 10–80 ng of plasmid encoding F508del, E92K, P67L, V232D, F508del/G550E, F508del/I539T or wild type CFTR and 20 ng of plasmid encoding YFP (H148Q/I152L/F47L) using jetPEI (Polyplus transfection). Directly after transfection, cells were seeded in black 96-well plates coated with poly-D-lysine at a density of 70,000 cells per well. The next day, cells were treated with corrector(s) for 24 h. After this incubation period, cells were washed twice with DPBS with Ca^2+ and Mg^2+. […] YFP fluorescence was measured using an EnVision plate reader (PerkinElmer). […] The capacity of potentiators to increase CFTR channel function was expressed as 1-(fluorescence 7 s after NaI addition (F)/fluorescence before NaI addition (F0)). […]
Due to the lack of any forskolin activated current upon correction of F508del carrying cells with GLPG2737, we wondered whether GLPG2737 would have an effect on wild type CFTR activity. […] Similar to the observations in the 24 h incubation experiment, a decrease in wild type channel activity was measured with increasing amounts of GLPG2737 (Figure 6B). Since the YFP halide assay was performed using an overexpressing cell system that might not be physiologically relevant, GLPG2737 was also evaluated on normal HBE cells.

F508del CFTR = F508del CFTR (Homo sapiens, UniProt P13569, DEL508-508); assay: CSE-MEM assay (cell surface expression DiscoverX assay); assay type: cell-based; parameters: University of North Carolina; host or cells: primary human bronchial epithelial cells, F508del/F508del donors; conditions: 24 h treatment; for % F508del PM Expression vs control: VX809 rescue = 100%
F508del CFTR, sequence (P13569 with tags, fused parts or gaps DEL508-508): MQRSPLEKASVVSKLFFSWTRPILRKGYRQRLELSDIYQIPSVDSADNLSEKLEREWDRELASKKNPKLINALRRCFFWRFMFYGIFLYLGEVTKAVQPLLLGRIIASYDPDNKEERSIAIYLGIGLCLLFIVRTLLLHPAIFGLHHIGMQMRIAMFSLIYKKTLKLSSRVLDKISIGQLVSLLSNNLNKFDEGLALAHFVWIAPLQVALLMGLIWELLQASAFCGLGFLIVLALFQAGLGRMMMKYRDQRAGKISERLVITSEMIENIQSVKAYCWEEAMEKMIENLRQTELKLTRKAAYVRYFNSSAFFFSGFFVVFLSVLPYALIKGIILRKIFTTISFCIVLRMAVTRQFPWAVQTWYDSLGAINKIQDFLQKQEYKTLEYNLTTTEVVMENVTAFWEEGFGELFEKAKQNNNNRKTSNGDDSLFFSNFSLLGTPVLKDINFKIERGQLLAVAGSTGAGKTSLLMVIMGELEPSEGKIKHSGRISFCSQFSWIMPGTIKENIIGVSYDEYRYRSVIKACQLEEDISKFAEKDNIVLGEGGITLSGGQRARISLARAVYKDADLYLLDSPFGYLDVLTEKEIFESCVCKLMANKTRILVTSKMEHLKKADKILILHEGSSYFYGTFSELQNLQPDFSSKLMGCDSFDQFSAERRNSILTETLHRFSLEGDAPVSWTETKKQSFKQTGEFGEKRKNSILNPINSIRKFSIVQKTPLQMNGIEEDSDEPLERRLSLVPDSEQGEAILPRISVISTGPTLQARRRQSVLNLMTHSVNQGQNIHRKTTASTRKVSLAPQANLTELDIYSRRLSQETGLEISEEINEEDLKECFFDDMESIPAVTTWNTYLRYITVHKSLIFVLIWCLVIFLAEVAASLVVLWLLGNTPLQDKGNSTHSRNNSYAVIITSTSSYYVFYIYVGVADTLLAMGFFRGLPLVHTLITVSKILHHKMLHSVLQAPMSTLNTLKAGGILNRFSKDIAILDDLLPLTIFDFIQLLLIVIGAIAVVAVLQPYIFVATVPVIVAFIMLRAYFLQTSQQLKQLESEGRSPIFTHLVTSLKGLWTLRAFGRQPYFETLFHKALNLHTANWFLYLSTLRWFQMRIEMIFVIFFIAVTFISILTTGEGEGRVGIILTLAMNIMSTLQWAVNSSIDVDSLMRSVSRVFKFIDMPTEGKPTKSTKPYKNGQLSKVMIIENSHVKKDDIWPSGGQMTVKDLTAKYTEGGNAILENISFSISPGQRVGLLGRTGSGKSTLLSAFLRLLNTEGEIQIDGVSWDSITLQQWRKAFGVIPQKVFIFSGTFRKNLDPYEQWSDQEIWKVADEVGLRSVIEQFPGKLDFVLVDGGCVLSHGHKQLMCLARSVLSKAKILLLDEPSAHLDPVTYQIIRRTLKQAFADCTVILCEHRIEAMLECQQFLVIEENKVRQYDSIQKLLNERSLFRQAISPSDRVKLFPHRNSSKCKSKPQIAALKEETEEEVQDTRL
Experimental: Twenty-five microliters of cell plating reagent 5 (DiscoverX, 93-0563R5A) containing 5000 U2OS EA-MEM F508del_CFTR cells per well was added in white 384 well plates (Greiner, 781080) on day 1 and incubated overnight at 37°C, 5% CO2. On day 2, medium was refreshed and compounds (1 μl of 26 × concentrated solution) were added to the cells. All compounds used during the experiment were first dissolved in DMSO to a 10 mM solution which was then diluted to a 26 × solution in the medium just prior to the experiment. Cells were incubated with compounds for 20–24 h at 37°C, 5% CO2. On day 3, the plates were first incubated at room temperature for 1 h. After 1 h the plates were washed two times with PBS +/+ (Gibco, 14040-091) and 30 μL PBS +/+ (Gibco, 14040-091) was added after the last wash step. Then 15 μL of substrate (DiscoverX, 93-0247: 1 part Flash cell assay buffer + 4 parts Flash substrate) was added per well. After 1 h of incubation at room temperature in the dark, the luminescence signal was read on an EnVision plate reader (PerkinElmer).
To discover novel correctors several high throughput screening campaigns were performed using cell based assays measuring plasma membrane expression of the F508del CFTR protein. The CSE-HRP system used CFBE41O-cells, a lung epithelial cell line, stably transfected with F508del CFTR tagged with HRP in the fourth extracellular loop ([Veit et al., 2014]). The CSE-MEM system, used U2OS cells, an osteosarcoma epithelial cell line, stably transfected with F508del CFTR tagged with a Pro-link moiety at the C-terminal and a plasma membrane located EA (enzyme acceptor) moiety. The latter cells were created by DiscoverX and the assay further optimized to allow robust evaluation in a high throughput manner.
For screening, cells were pre-incubated with compound for 24 h prior to read-out to allow sufficient time for de novo synthesis, and cellular trafficking of F508del-CFTR to reach steady state levels at the plasma membrane. […]

wild type CFTR, sequence (P13569 whole entry): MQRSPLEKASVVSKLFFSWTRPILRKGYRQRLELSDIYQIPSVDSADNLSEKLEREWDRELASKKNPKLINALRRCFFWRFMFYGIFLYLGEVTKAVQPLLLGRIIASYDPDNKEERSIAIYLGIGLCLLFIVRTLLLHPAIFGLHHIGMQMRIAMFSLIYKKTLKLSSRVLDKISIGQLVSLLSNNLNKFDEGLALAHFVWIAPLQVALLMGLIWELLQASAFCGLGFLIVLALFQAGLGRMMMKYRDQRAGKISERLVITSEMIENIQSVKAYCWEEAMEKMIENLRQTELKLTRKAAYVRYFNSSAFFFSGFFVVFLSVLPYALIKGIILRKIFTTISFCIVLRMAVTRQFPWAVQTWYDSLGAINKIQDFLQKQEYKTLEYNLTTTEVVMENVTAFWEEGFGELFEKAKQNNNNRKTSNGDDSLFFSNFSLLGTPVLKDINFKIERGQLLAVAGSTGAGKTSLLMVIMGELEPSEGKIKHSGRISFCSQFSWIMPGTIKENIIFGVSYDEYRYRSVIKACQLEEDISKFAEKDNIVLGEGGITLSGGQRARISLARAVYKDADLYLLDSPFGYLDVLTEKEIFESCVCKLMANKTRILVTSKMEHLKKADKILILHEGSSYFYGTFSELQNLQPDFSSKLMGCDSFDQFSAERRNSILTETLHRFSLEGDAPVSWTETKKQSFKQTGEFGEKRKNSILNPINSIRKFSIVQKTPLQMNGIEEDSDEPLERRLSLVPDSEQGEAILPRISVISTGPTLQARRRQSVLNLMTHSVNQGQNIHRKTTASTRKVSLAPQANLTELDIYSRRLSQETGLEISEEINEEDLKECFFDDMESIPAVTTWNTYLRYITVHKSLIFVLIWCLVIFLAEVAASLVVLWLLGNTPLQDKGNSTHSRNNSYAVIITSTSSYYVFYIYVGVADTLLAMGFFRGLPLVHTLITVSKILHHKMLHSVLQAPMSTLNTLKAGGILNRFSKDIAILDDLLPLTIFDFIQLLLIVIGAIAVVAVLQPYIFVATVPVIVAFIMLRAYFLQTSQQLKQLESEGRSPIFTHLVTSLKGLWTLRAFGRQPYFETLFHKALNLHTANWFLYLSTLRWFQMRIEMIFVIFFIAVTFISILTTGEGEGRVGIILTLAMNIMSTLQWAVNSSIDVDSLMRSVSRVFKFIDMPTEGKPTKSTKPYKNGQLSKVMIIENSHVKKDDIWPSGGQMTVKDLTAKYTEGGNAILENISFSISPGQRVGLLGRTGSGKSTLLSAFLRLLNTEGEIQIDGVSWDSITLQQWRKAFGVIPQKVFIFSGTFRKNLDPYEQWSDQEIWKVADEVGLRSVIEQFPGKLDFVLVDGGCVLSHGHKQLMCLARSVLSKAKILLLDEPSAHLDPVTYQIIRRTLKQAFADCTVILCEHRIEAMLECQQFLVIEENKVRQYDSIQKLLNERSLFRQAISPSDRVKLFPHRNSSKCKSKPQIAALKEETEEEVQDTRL

wild type CFTR activity (wild type CFTR; 24 h incubation with a dose range, 100 nM FSK): dose dependent decrease | wild type channel activity (wild type CFTR; acute addition together with forskolin (100 nM)): decrease | % F508del PM Expression vs control (F508del CFTR; + 3 μM VX809): 415% | EC50 (F508del CFTR; no co-corrector): 707 nM | % F508del PM Expression vs control (F508del CFTR; no co-corrector): 197%
SMILES: COC1CCN(C2CCN(c3cc(C(=O)NS(=O)(=O)N(C)C)nc4c3c(C3CCC3)nn4-c3ccc(F)cc3)CC2)CC1 [GLPG2737]

— article PMC6521598, “Identification of GLPG/ABBV-2737, a Novel Class of Corrector, Which Exerts Functional Synergy With Other CFTR Modulators” (Frontiers in Pharmacology, 2019)
